In patent publication US11312727B1, “Macrocyclic flu endonuclease inhibitors” (Janssen BioPharma, Inc., priority 2018, dated 2022):
Like-named read-outs stand apart in the source and are kept apart here.

How the values were obtained:
[1] = test system: Influenza strain A549 A/WSN/33 (H1N1); assay: microbe, parasite or virus in culture; assay type: cell-based; settings: A549 cells, influenza A/WSN/33 (H1N1), 20 hours incubation, read-out: A549_A(H1N1) EC50
[2] = test system: Human lung carcinoma A549 cells; settings: uninfected A549 cells, CellTiter-Glo
in vitro = settings: human, CC50, uninfected A549 cells, CellTiter-Glo
[3] = biological target: EN PA (full length recombinant PA endonuclease) (Influenza A virus (strain A/Wilson-Smith/1933 H1N1) (Influenza A virus (strain A/WS/1933 H1N1)), UniProt P15659); assay: biochemical; settings: full length EN PA 1 to 10 nM, 50 nM FRET probe; mean of a minimum of two independent experiments; read-out: FRET_ _IC50

| SMILES | EC50 [1] | CC50 [2] | EC50 ([1]; Influenza A virus, A549, 20 h) | CC50 (in vitro) | IC50 [3] |
| --- | --- | --- | --- | --- | --- |
| O=C1c2c(O)c(=O)ccn2N2CN1C/C=C/CCc1c(F)cccc1C2c1cccc(F)n1 (single isomer, unassigned) [Compound 76B, (16*S,E)-12-fluoro-16-(6-fluoropyridin-2-yl)-4-hydroxy-7,10,11,16-tetrahydro-6,17-methanobenzo[k]pyrido[1,2-b][1,2,5]triazacyclotridecine-3,5-dione] | 6 nM | > 200 nM |  |  |  |
| O=C1c2c(O)c(=O)ccn2N2CN1C/C=C/CCc1ccccc1C2c1cccc(F)n1 (single isomer, unassigned) [Compound 78A, (16*R,E)-16-(6-fluoropyridin-2-yl)-4-hydroxy-7,10,11,16-tetrahydro-6,17-methanobenzo[k]pyrido[1,2-b][1,2,5]triazacyclotridecine-3,5-dione] | 19 nM | > 1000 nM |  |  |  |
| CC1CCCCc2ccccc2C(c2ccccc2)N2CN1C(=O)c1c(O)c(=O)ccn12 (stereo not shown) [Compound 13, 4-hydroxy-7-methyl-15-phenyl-8,9,10,15-tetrahydro-7H-6,16-methanobenzo[j]pyrido[1,2-b][1,2,5]triazacyclododecine-3,5-dione] |  |  | 19 nM | > 2000 nM | 46 nM |
